Experimental data: PubChem BioAssay AID1963840 (Molecular Pharmacology Branch, DTP, NCI, 2024)

Tested on: 695427-040-R-J1-PDC complex spheroid viability
Experiment: Anticancer human tumor 695427-040-R-J1-PDC patient-derived colon adenocarcinoma cell line growth inhibition [POLQ]
Settings: for IC50: curve of first compound; for viability, T/C: stronger effect = lower value
Description: Multicellular complex tumor spheroid response to Polymerase (POL) inhibitors (novobiocin, ART-558, RP6685) in combination with a variety of drugs and investigational agents in selected tumor cell lines
The POL inhibitors (novobiocin, ART-558, and RP6685) were evaluated both individually and in combination with standard of care and investigational anticancer small molecules within a complex spheroid model of solid tumors. . Complex spheroids include a stromal component modeled by human endothelial cells (HUVEC) and fibroblasts modeled by human mesenchymal stem cells (MSCs). The concentration ranges selected for each drug and investigational agent were based upon clinically achievable concentrations if the clinical Cmax of the agent was known.
Compounds. The drugs and investigational agents: novobiocin (NSC847541), ART-558 (NSC835418), RP-6685 (NSC848927), peposertib (NSC802822), ceralasertib (NSC780249), elimusertib (NSC800525), camonsertib (NSC841442), AZD-1390 (NSC803789), olaparib (NSC753686), talazoparib (NSC767125), rucaparib (NSC756644), sotorasib (NSC818433), MRTX-1133 (NSC836407), SN-38 (NSC673596), topotecan (NSC609699), epotoside (NSC141540), doxorubicin (NSC123127), gemcitabine (NSC613327), 5-fluorouracil (NSC19893), paclitaxel (NSC125973), vemurafenib (NSC761431), MSA-2 (NSC828583), SN-011 (NSC837082), adavosertib (NSC754352), prexasertib (NSC758257), carboplatin (NSC241240) and oxaliplatin (NSC266046), were obtained from the National Cancer Institute (NCI) Developmental Therapeutics Program Chemical Repository (21). The FDA-approved anticancer drug set is available from the Developmental Therapeutics Program at https://dtp.cancer.gov/organization/dscb/obtaining/. […] The stock solutions were prepared in dimethyl sulfoxide (DMSO, Sigma-Aldrich, St. Louis, MO, cat. D2650), except for the platinum compounds which were prepared in saline (Quality Biological, Gaithersburg, MD, cat. 114-055-101), at 800-fold the tested concentration and stored at -70 degrees C prior to their use. All drugs and investigational agents were tested over a range starting from a high concentration at or near the clinical Cmax and decreasing in half-log increments. If the clinical Cmax for an agent had not been determined, the highest concentration tested was 10 microM, except for SN-38, which was tested at a high concentration of 1 microM.
Cell Culture. All cells were maintained in an incubator at 37 degrees C and 5% CO2 with 95% humidity. The PDC lines were cultured according to standard operating procedures established by the NCI PDMR (https://pdmr.cancer.gov). Table 3 of the manuscript, lists the cell lines along with the number of the three cell types plated to form the mct-spheroids and media for tumor cell growth. After thawing, all PDC lines, except 997537-175-T-J1-PDC and 415267-285-R-J2-PDC, were cultured in Matrigel-coated flasks prepared with a working solution of 1X Ham's F-12 nutrient mix, without supplementation (Thermo Fisher Scientific, cat. 11765054), 100 U/mL penicillin-streptomycin (Thermo Fisher Scientific, cat. 15140122), and 2.5% Matrigel (Corning Inc., Corning, NY, cat. 354248) for the first three passages. The two PDC lines 997537-175-T-J1-PDC and 415267-285-R-J2-PDC were cultured on uncoated flasks. The 857933-349-R-J2-PDC line was cultured in 6C/Colon 1B media containing advanced DMEM/F-12 (Thermo Fisher Scientific, cat. 12634028), 10 mM HEPES (Thermo Fisher Scientific, cat. 15630080), 1X GlutaMAX supplement (Thermo Fisher Scientific, cat. 35050061), 0.1 mg/mL primocin (InvivoGen, San Diego, CA, cat. ant-pm-2), 10% defined fetal bovine serum, heat inactivated (HyClone Laboratories Inc., Logan, UT, cat. SH30070.03HI), 50% L-WRN conditioned media (ATCC, cat. CRL-3276), 1.25 mM N-Acetyl-L-cysteine (Sigma-Aldrich, cat. A9165), 10 mM nicotinamide (Sigma-Aldrich, cat. N0636), 1X B-27 supplement (Thermo Fisher Scientific, cat. 17504044), 1X N-2 supplement (Thermo Fisher Scientific, cat. […]
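Note: spheroids exposed to compounds for seven days.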
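Throughout, for viability, T/C: 100% = DMSO vehicle control viability.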

Compound: CCc1cc2c(N3CCc4c(cc(Cn5ccnc5)cc4-c4cn(C)nc4C(F)(F)F)C3=O)cc(C)nc2c(OC)n1 + COC1C(OC(N)=O)C(O)C(Oc2ccc3c(O)c(NC(=O)c4ccc(O)c(CC=C(C)C)c4)c(=O)oc3c2C)OC1(C)C
- IC50 (second compound 0.0316 µM): > 10 µM
- IC50 (second compound 0.1 µM): > 10 µM
- IC50 (second compound 0.316 µM): > 10 µM
- IC50 (second compound 1 µM): > 10 µM
- IC50 (second compound 3.16 µM): > 10 µM
- IC50 (second compound 10 µM): > 10 µM
- viability, T/C (second compound 0.0316 µM, first compound 0.0316 µM): 106%
- viability, T/C (second compound 0.0316 µM, first compound 0.1 µM): 103%
- viability, T/C (second compound 0.0316 µM, first compound 0.316 µM): 111%
- viability, T/C (second compound 0.0316 µM, first compound 1 µM): 107%
- viability, T/C (second compound 0.0316 µM, first compound 3.16 µM): 108%
- viability, T/C (second compound 0.0316 µM, first compound 10 µM): 99.1%
- viability, T/C (second compound 0.1 µM, first compound 0.0316 µM): 114%
- viability, T/C (second compound 0.1 µM, first compound 0.1 µM): 104%
- viability, T/C (second compound 0.1 µM, first compound 0.316 µM): 105%
- viability, T/C (second compound 0.1 µM, first compound 1 µM): 96.5%
- viability, T/C (second compound 0.1 µM, first compound 3.16 µM): 111%
- viability, T/C (second compound 0.1 µM, first compound 10 µM): 117%
- viability, T/C (second compound 0.316 µM, first compound 0.0316 µM): 107%
- viability, T/C (second compound 0.316 µM, first compound 0.1 µM): 112%
- viability, T/C (second compound 0.316 µM, first compound 0.316 µM): 106%
- viability, T/C (second compound 0.316 µM, first compound 1 µM): 109%
- viability, T/C (second compound 0.316 µM, first compound 3.16 µM): 110%
- viability, T/C (second compound 0.316 µM, first compound 10 µM): 97.8%
- viability, T/C (second compound 1 µM, first compound 0.0316 µM): 108%
- viability, T/C (second compound 1 µM, first compound 0.1 µM): 108%
- viability, T/C (second compound 1 µM, first compound 0.316 µM): 105%
- viability, T/C (second compound 1 µM, first compound 1 µM): 101%
- viability, T/C (second compound 1 µM, first compound 3.16 µM): 120%
- viability, T/C (second compound 1 µM, first compound 10 µM): 99.3%
- viability, T/C (second compound 3.16 µM, first compound 0.0316 µM): 117%
- viability, T/C (second compound 3.16 µM, first compound 0.1 µM): 109%
- viability, T/C (second compound 3.16 µM, first compound 0.316 µM): 113%
- viability, T/C (second compound 3.16 µM, first compound 1 µM): 105%
- viability, T/C (second compound 3.16 µM, first compound 3.16 µM): 115%
- viability, T/C (second compound 3.16 µM, first compound 10 µM): 97.3%
- viability, T/C (second compound 10 µM, first compound 0.0316 µM): 116%
- viability, T/C (second compound 10 µM, first compound 0.1 µM): 118%
- viability, T/C (second compound 10 µM, first compound 0.316 µM): 110%
- viability, T/C (second compound 10 µM, first compound 1 µM): 109%
- viability, T/C (second compound 10 µM, first compound 3.16 µM): 117%
- viability, T/C (second compound 10 µM, first compound 10 µM): 122%
